Results from patent US7786175B2, “Anti-atherosclerosis composition containing carotenoids and method for inhibiting LDL oxidation” (Lycored Natural Products, priority 2001, dated 2010).

Experiments:
LDL [1] = test: Copper ion-induced LDL oxidation, lipid peroxides assay; format: biochemical; conditions: for effect on LDL oxidation (lipid peroxides), in words: single compounds at low concentration mimicking Lyc-O-Mato: lycopene 10 μg/ml, vitamin E 2.5 μg/ml, β-carotene 0.4 μg/ml
Experimental: (§1) All studied compounds were dissolved in THF to a stock solution of 1 mg/ml. LDL was dialyzed for 24 hours against phosphate buffered-saline (PBS) prior to its oxidation to remove any EDTA that can interfere with the oxidation. LDL (100 μg protein/ml), was incubated in the absence (Control) or presence of increasing concentrations of each one of the studied compounds, as well as, in various combinations including 2, 3 or the 4 constituents at the desired natural distribution. LDL oxidation was induced by the addition of 5 μM of CuSO4, for 2 hours at 37° C. LDL oxidation was terminated by adding 1 mM Na2 EDTA and immediate refrigeration at 4° C. The extent of LDL oxidation was then determined by measuring the amount of thiobarbituric acid reactive substances (TBARS) and of lipid peroxides (PD) formed. Control LDL was supplemented with only THF.
(§2) LDL (100 μg of protein/mL) was pre-incubated for 30 minutes at 37° C. with increasing concentrations of crystalline pure lycopene, or with tomato oleoresin (at equivalent lycopene concentrations), followed by a further incubation for 2 hours at 37° C. in the presence of 5 μmol/L of CuSO4. LDL oxidation was measured by the TBARS (A) or by the lipid peroxides (B) assays respectively. Results are given as mean±SD (n=3). Addition of increasing concentrations of lycopene inhibited copper ion-induced LDL oxidation moderately, in a dose-dependent manner.

LDL [2] = test: Copper ion-induced LDL oxidation, TBARS assay; format: biochemical; conditions: for effect on LDL oxidation (TBARS), in words: single compounds at low concentration mimicking Lyc-O-Mato: lycopene 10 μg/ml, vitamin E 2.5 μg/ml, β-carotene 0.4 μg/ml
Experimental: as §1, §2

[3] = 50 μmol/L of lycopene, LDL 100 μg of protein/mL, 5 μmol/L CuSO4, 2 hours at 37° C.

| Compound | maximal inhibition in lipid peroxides formation (LDL [1]; [3]) [%] | effect on LDL oxidation (lipid peroxides), in words (LDL [1]) | maximal inhibition in TBARS formation (LDL [2]; [3]) [%] | effect on LDL oxidation (TBARS), in words (LDL [2]) | effect on LDL oxidation, in words (LDL [2]; Example 5: β-carotene alone or in combination with vitamin E) |
| --- | --- | --- | --- | --- | --- |
| CC(C)=CCC/C(C)=C/C=C/C(C)=C/C=C/C(C)=C/C=C/C=C(C)/C=C/C=C(C)/C=C/C=C(\C)CCC=C(C)C [lycopene] | 27 | did not significantly affect LDL oxidation | 22 | did not significantly affect LDL oxidation |  |
| CC1=C(/C=C/C(C)=C/C=C/C(C)=C/C=C/C=C(C)/C=C/C=C(C)/C=C/C2=C(C)CCCC2(C)C)C(C)(C)CCC1 [β-carotene] |  | did not significantly affect LDL oxidation |  | did not significantly affect LDL oxidation | did not affect at all LDL oxidation |
| vitamin E |  | did not significantly affect LDL oxidation |  | did not significantly affect LDL oxidation |  |
